These results are taken from patent US20230310412A1, “USE OF CASPASE INHIBITOR FOR ALLEVIATING OR TREATING OSTEOARTHRITIS” (LG CHEM, LTD., priority 2020, published 2023).

For experiment [1], the system named is beagle dog model of osteoarthritis. The experiment in a line: MRI evaluation of effect on joint structure in animal model of osteoarthritis. The conditions noted are these: MRI before vs 3 months after single intra-articular administration; FIG. 6. It is filed as in vivo. As to the method:
In a beagle dog model of osteoarthritis induced by daily forced exercise after surgical anterior cruciate ligament transection with medial meniscectomy, the effect on joint structure was evaluated by taking an MRI (SIGNA Pioneer 3.0T MR, GE Healthcare Co., USA) of the joint before a single intra-articular administration and 3 months thereafter.

The subject of experiment [2] is osteoarthritis-induced beagle dogs. The experiment in a line: Efficacy on improving walking ability (lameness score) in animal model of osteoarthritis. The experiment is classed as in vivo. As to the method: Beagle dogs were purchased from Orient Bio, and healthy animals were used for the experiment after a one-week quarantine cycle. After 1 week of recovery after surgical anterior cruciate ligament transection with medial meniscectomy, forced exercise for 30 minutes every day was carried out to induce osteoarthritis. The surgery for inducing osteoarthritis was performed under anesthesia after the animals were depilated on both knees. After broad disinfection of the incision site with povidone and 70% ethanol, the skin of the right knee was incised. By blunt dissection of the surrounding tissues, the articular surface of the distal end of femur was exposed. An instrument portal was created on the medial articular surface, and the meniscus and anterior cruciate ligament were excised. Wound closure was performed by the use of 4-0 nylon suture. […] The assessment about walking ability for evaluating the pain status and functional level of osteoarthritis animals was carried out according to the method proposed by Pashuck et al. (Troy D. Pashuck et al., J Orthop Res, 2016, 34(10): 1772-1779), and the lameness score as represented in Table 1 was recorded until the end of the experiment. […] The efficacy of nivocasan in an animal model of osteoarthritis was measured by evaluating the lameness score twice a week after a single intra-articular administration. […]

Experiment [3] relates to IL-1β secretion in human peripheral blood mononuclear cells (PBMCs). The experiment in a line: Suppressive efficacy against LPS-induced IL-1β secretion in human-derived PBMC. The experiment is classed as cell-based. To be noted: FIG. 2. Here is the method: The inhibitory effects of nivocasan on inflammasome activation in human peripheral blood mononuclear cells (PBMCs) were evaluated by measuring LPS-induced IL-1β secretion. Freshly isolated PBMCs were plated at 2.5×10^5 cells/well (24-well plate) in RPMI-1640 media and treated with nivocasan or DMSO for 30 minutes, followed by incubation with 100 ng/ml LPS for 24 hours to induce inflammation. Levels of IL-1β in PBMC supernatants was measured by ELISA (R&D Systems Quantikine human IL-1β; detection limit: 7.8 pg/ml), and the results are represented in FIG. 2.

Experiment [4] relates to human chondrocytes. The experiment in a line: Protective effect on TNF-α-induced apoptosis in human-derived chondrocytes. It is filed as cell-based. The conditions noted are these: human normal chondrocytes, compound 30 min, then 10 ng/ml TNF-α and 1 μg/ml actinomycin D 18 h; Cell Death Detection ELISA; FIG. 3. As to the method:
The protective effect of nivocasan on TNF-α-induced apoptosis was evaluated in human chondrocytes. Human normal chondrocytes were plated at 1×10^5 cells/well (collagen-coated 24-well plate) in chondrocyte media (Prigrow IV Medium, Applied Biological Materials Inc.) and incubated overnight. The cells were treated with nivocasan or DMSO for 30 minutes, followed by incubation with 10 ng/ml human recombinant TNF-α and 1 μg/ml actinomycin D for 18 hours to induce apoptosis. Apoptosis was measured by using Cell Death Detection ELISA kit, and the results are represented in FIG. 3.
In general terms: In an ELISA, binding on a coated surface is turned into a signal by an enzyme label.

The subject of experiment [5] is beagle dog model of osteoarthritis. The experiment in a line: Histopathological evaluation of effect on joint in animal model of osteoarthritis. The experiment is classed as in vivo. As to the method:
In a beagle dog model of osteoarthritis induced by daily forced exercise after surgical anterior cruciate ligament transection with medial meniscectomy, an autopsy was performed 3 months after a single intra-articular administration, and the joint was collected and fixed. The fixed tissue was subjected to conventional tissue processing such as demineralization, trimming, dehydration, paraffin embedding, sectioning and the like to prepare a specimen for histopathological examination, followed by hematoxylin eosin and safranin-o staining. An optical microscopy (Olympus BX53, Japan) was used to observe histopathological changes.
Histopathological evaluation was performed by comparing between groups with scoring as shown in Tables 3 to 8 according to the method proposed by Cook et al. (Cook et al., Osteoarthritis Cartilage. 2010; 18 Suppl 3:S66-S79), and the results are represented in FIG. 7.

Experiment [6] relates to IL-1β secretion in THP-1 cells. The experiment in a line: Suppressive efficacy against LPS/nigericin-induced IL-1β secretion in THP-1 cells. It is filed as cell-based, human. To be noted: PMA-differentiated, LPS 100 ng/ml 24 h, compound 30 min, then 5 μM nigericin & 1 mM ATP 1 h, ELISA, FIG. 1. As to the method: To evaluate the inflammation blocking effects of nivocasan, IL-1β secretion was measured in THP-1 cells under conditions in which inflammation was induced by lipopolysaccharide (LPS)/nigericin treatment. The day before LPS treatment, THP-1 cells were plated at 2.5×10^5 cells/well (24-well plate) in RPMI-1640 media and treated with 0.5 μM phorbol 12-myristate 13-acetate (PMA) for macrophage differentiation during overnight culture. The media was then changed with Opti-MEM media and the cells were incubated with LPS 100 ng/ml (the first inflammation signal for […] up-regulation) for 24 hours. The cells were then washed with PBS twice and treated with nivocasan or DMSO for 30 minutes in Opti-MEM media, followed by incubation with 5 μM nigericin & 1 mM ATP for 1 hour to activate inflammasome (NLRP3 activation and IL-1β secretion). Secreted IL-1β was measured from cell media by using R&D Systems Quantikine human IL-1β (detection limit: 7.8 pg/ml), and the results are represented in FIG. 1.

Entries after “also recorded” stand apart in the source; their conditions may differ.

Regarding `C[C@H](NC(=O)C(=O)Nc1ccccc1C(C)(C)C)C(=O)N[C@@H](CC(=O)O)C(=O)COc1c(F)c(F)cc(F)c1F` [emricasan, N-(2-tert-butylphenyl)-2-oxoglycyl-N-[1(S)-(carboxymethyl)-2-oxo-3-(2,3,5,6-tetrafluorophenoxy)propyl]-L-alaninamide, reference compound], in experiment [1], the “bone marrow lesion (MRI score)” value is on record as “improvement” and the “synovitis (MRI score)” value is “improvement”. In addition, the “improvement of walking ability (lameness score), compared with nivocasan” value in experiment [2] (single intra-articular administration of 10 mg, FIG. 5) is “improvement of a walking ability similar to that of 10 mg of nivocasan”.
For `CC(C)[C@@]1(C(=O)N[C@H]2CC(=O)O[C@]2(O)CF)CC(c2nccc3ccccc23)=NO1` [nivocasan, (R)—N-((2S,3S)-2-(fluoromethyl)-2-hydroxy-5-oxotetrahydrofuran-3-yl]-5-isopropyl-3-(isoquinolin-1-yl)-4,5-dihydroisoxazole-5-carboxamide], the “concentration showing maximum effect on LPS-induced IL-1β secretion” value in experiment [3] (100 ng/ml LPS 24 h) is 0.3 µM. Moreover, in experiment [3] (compound 30 min, then 100 ng/ml LPS 24 h, ELISA), the “suppression of LPS-induced IL-1β secretion” value is “suppressed LPS-induced IL-1β secretion from PBMCs in a dose dependent manner”. The “prevention of TNF-α-induced apoptosis” value in experiment [4] is recorded as “prevented TNF-α-induced apoptosis in human chondrocytes in a dose-dependent manner”. For the same compound, the “histopathology evaluation of the joints” value in experiment [5] (autopsy 3 months after single intra-articular administration, FIG. 7) is “dose-related histopathological improvement”. Also, the improving cartilage structure result in experiment [5] (single administration, summary of Examples 4 to 6) was “effective in improving cartilage structure”. Further, in experiment [1], the “bone marrow lesion (MRI score)” value is recorded as “improvement” and the “synovitis (MRI score)” value was “improvement”. Moreover, the “suppression of LPS/nigericin-induced IL-1β secretion” value in experiment [6] is “suppressed LPS/nigericin-induced IL-1β secretion in THP-1 cells in a dose-dependent manner”. Also, in experiment [2] (single intra-articular administration 0.1, 0.3, 1, 3 and 10 mg/knee, scored twice a week for 3 months, FIG. 4), the “improvement of walking ability (lameness score)” value is listed as “showed the efficacy of the improvement of walking ability in a dose-dependent manner; also recorded: effective in improving walking ability”.
